# Experimental data as given in publication PMC6131501, “Urate transporter inhibitor lesinurad is a selective peroxisome proliferator-activated receptor gamma modulator (sPPARγM) in vitro” (Scientific Reports, 2018).
# Entries after “also recorded” stand apart in the source; their conditions may differ.
# Key:
# 3T3-L1 adipocytes = test: Differentiation of 3T3-L1 adipocytes, Oil Red O staining; format: cell-based, murine; conditions: rosiglitazone 2 μM; lesinurad up to 50 μM
# Description: For this, 3T3-L1 cells were treated with insulin, dexamethasone and isobutylmethylxanthine (IBMX) to induce their differentiation into mature adipocytes. […] 3T3-L1 cells were subcultured in DMEM containing 10% newborn calf serum in a humidified atmosphere at 37 °C, 5% CO2. Cells were differentiated into adipocytes within 14 days according to the method[54] reported by Zebisch and colleagues. In brief, cells were seeded in 6-well plates ([…]). […] At day 5, medium was changed to contain only insulin for another two days. Cells were then kept for lipid droplet accumulation in basal medium without additions until day 15. […] Differentiation of 3T3-L1 cells to adipocytes was confirmed by Oil Red O staining. For this, cells were washed with PBS and then fixed for 60 min with a formaldehyde solution (4% in PBS). Subsequently, cells were rinsed with 60% isopropanol and incubated with Oil Red O solution (0.3%) for 120 min.
# PPARγ = tested on: PPARγ; parameters: method as in PMID 27716403; conditions: up to 100 μM; non-human cell line overexpressing PPARγ; cited from earlier work
# [1] = tested on: PPARγ-regulated genes in 3T3-L1 adipocytes; test: PPARγ target gene quantification in 3T3-L1 adipocytes (qPCR); format: cell-based, murine; conditions: 3T3-L1 adipocytes, rosiglitazone 2 μM, 1 30 μM, mean ± SEM, n = 3
# Description: 3T3-L1 cells were cultured and differentiated as described above. Cells were then lysed using TRIzol reagent (Ambion, Life Technologies, Carlsbad, CA, USA), and mRNA was isolated following the manufacturer’s protocol. DNA contaminations were digested using DNase (DNase I, RNase-free kit; Thermo Scientific, Waltham, MA, USA) and mRNA concentrations were measured with a NanoDrop2000 spectrophotometer (Thermo Scientific, Waltham, MA, USA). Subsequently, reverse transcription was performed using the high capacity RNA-to-cDNA kit (Applied Biosystems, Foster City, CA, USA). Quantitative real-time PCR was performed using specific primers for CD36, […] and CPT1A with a StepOnePlus real-time PCR system (Applied Biosystems, Foster City, CA, USA). Non-POU domain containing octamer binding protein (NonO) was used as reference gene for 3T3-L1. All samples were measured in duplicate and were analyzed using the ΔΔCt method. The following PCR primers were used: Adiponectin: 5′-TGACGACACCAAAAGGGCTC-3′ (fwd) and 5′-CACAAGTTCCCTTGGGTGGA-3′ (rev); CD36: 5′-TGCTGGAGCTGTTATTGGTG-3′ (fwd) and 5′-CATGAGAATGCCTCCAAACA-3′ (rev); FABP4: 5′-AGAAGTGGGAGTGGGCTTTG-3′ (fwd) and 5′-ACTCTCTGACCGGATGGTGA-3′ (rev); GLUT4: 5′-TGAAGAACGGATAGGGAGCAG-3′ (fwd) and 5′-GAAGTGCAAAGGGTGAGTGAG-3′ (rev); NonO: 5′-TGCTCCTGTGCCACCTGGTACTC-3′ (fwd) and 5′-CCGGAGCTGGACGGTTGAATGC-3′ (rev).
# Results (expressed as mean ± SEM % relative mRNA expression; n = 3): Adiponectin: untreated (0.1% DMSO): 124 ± 45%; […];
# 3T3-L1 cells = test: Cytotoxicity in adipocyte differentiation experiment; format: cell-based, murine; conditions: up to 50 μM (data not shown)
# Description: For this, 3T3-L1 cells were treated with insulin, dexamethasone and isobutylmethylxanthine (IBMX) to induce their differentiation into mature adipocytes.
# PPARγ LBD / CBP = PPARγ LBD / CBP (Homo sapiens, UniProt P37231); test: PPARγ coactivator recruitment assay (time-resolved FRET), CBP; format: biochemical
# From the text: (§1) We analyzed the ability of lesinurad to induce recruitment of the coactivators steroid receptor coactivator 1 (SRC-1, also known as nuclear receptor coactivator 1 (NCOA1)) and cyclic AMP responsive element binding (CREB) protein (CBP) to the PPARγ ligand binding domain in a time-resolved FRET assay with labeled PPARγ-LBD and coactivator proteins (Fig. 5D).
# (§2) Recruitment of coactivator-derived peptides to the PPARγ LBD was studied by homogeneous time-resolved fluorescence resonance energy transfer (HT-FRET or HTRF). Terbium cryptate as streptavidin conjugate (cisbio assays, France) was used as FRET donor. Peptides derived from coactivators SRC-1 [biotin-[…]] or CBP [biotin-[…]] encompassing the coactivator consensus motif LxxLL and N-terminal biotin for stable coupling to streptavidin were purchased (Eurogentec GmbH, Germany). […] FI520 nm was divided by FI620 nm and multiplied with 10,000 giving a dimensionless HTRF signal. Coactivator recruitment by the PPARγ LBD brings FRET donor and acceptor into close proximity resulting in a gain in FRET signal as signal for binding.
# PPARγ LBD / SRC-1 = PPARγ LBD / SRC-1 (Homo sapiens, UniProt P37231); test: PPARγ coactivator recruitment assay (time-resolved FRET), SRC-1; format: biochemical
# From the text: as §1, §2
# Chain of PPARγ LBD / SRC-1 (P37231 238-503 limits assumed): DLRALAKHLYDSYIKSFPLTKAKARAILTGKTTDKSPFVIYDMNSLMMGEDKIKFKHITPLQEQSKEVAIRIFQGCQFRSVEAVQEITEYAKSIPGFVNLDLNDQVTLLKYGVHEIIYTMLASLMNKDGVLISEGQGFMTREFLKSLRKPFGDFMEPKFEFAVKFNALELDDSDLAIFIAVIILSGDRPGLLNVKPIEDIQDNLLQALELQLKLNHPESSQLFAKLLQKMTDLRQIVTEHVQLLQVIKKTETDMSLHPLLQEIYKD
# Chain of PPARγ LBD / SRC-1 (Q15788 676-700 partner limits assumed): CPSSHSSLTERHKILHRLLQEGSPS
# Chain of PPARγ LBD / CBP (P37231 238-503 limits assumed): as the sequence (P37231 238-503 limits assumed) above
# Chain of PPARγ LBD / CBP (Q92793 58-80 partner limits assumed): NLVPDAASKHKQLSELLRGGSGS
compound,measurement,setting,value
O=C(O)CSc1nnc(Br)n1-c1ccc(C2CC2)c2ccccc12 [lesinurad],lipid accumulation during differentiation (Oil Red O staining),3T3-L1 adipocytes,lacked this adipogenic effect; also recorded: does not induce fat accumulation
same,PPARγ activation reported by Miner et al.,PPARγ,does not activate PPARγ
same,CD36 relative mRNA expression,[1]; untreated 122 ± 43%,205 ± 76%
same,Adiponectin relative mRNA expression,[1]; untreated 124 ± 45%,175 ± 63%
same,GLUT4 relative mRNA expression,[1]; untreated 145 ± 61%,128 ± 43%
same,FABP4 relative mRNA expression,[1]; untreated 161 ± 72%,151 ± 58%
same,cytotoxicity,3T3-L1 cells,no cytotoxicity
same,EC50,"PPARγ LBD / CBP; HTRF, PPARγ LBD, 2 h at RT",44 ± 8 µM
same,CBP recruitment efficacy,PPARγ LBD / CBP; compared to 1 μM rosiglitazone,59 ± 4%
same,EC50,"PPARγ LBD / SRC-1; HTRF, PPARγ LBD, 2 h at RT",12 ± 2 µM
same,SRC-1 recruitment efficacy,PPARγ LBD / SRC-1; compared to 1 μM rosiglitazone,91 ± 5%
